Results reported in patent publication US20200246432A1, “NITRIC OXIDE- AND FAS LIGAND- ELUTING COMPOSITIONS AND DEVICES AND METHODS OF TREATMENT USING SAME” (YALE UNIVERSITY, priority 2017, published 2020).

Tests used:
Format in all cases: cell-based
pig aortic SMCs = assay: SMC apoptosis/killing, TUNEL staining, pig aortic SMCs; conditions: DetaNONOate alone, up to 0.2 mM
Description: (§1) FIG. 3 is a set of graphs illustrating the finding that 48 hours of treatment with varying concentrations of human FasL and DetaNONOate (NO donor) increased apoptosis in human (left panel) and pig (right panel) aortic SMCs in a synergistic way.
(§2) Addition of FasL and NO donor DetaNONOate increased human and pig aortic SMC apoptosis in a synergistic fashion (FIG. 3). DetaNONOate alone, up to 0.2 mM concentration, led to minimal (<15%) death of human or porcine SMCs.

human aortic SMCs [1] = assay: Fas receptor expression on cultured human aortic SMCs after NO donor treatment (staining); conditions: 0.1 mM DetaNONOate, 24 hours
Description: FIG. 2 is a set of images illustrating the finding that 24 hours of treatment with 0.1 mM DetaNONOate (NO donor) increased Fas receptors on the surface of human aortic SMCs dramatically. Blue=DAPI nuclei, red=Fas receptor. Scale bar: 50 μm.
Both local delivery of FasL, and increasing the Fas receptors on the surface of the target cells, can increase the efficiency of FasL-mediated apoptosis. Nitric oxide (NO) is known to increase surface Fas receptors on vascular SMCs (Fukuo et al., Hypertension, 1996. 27(3 Pt 2): p. 823-6; Boyle, Weissberg, and Bennett, Arterioscler Thromb Vasc Biol, 2002. 22(10): p. 1624-30). […] After 24 hours of treatment with DetaNONOate, Fas receptor expression on SMCs was increased (red stain, FIG. 2, right panel).

human aortic SMCs [2] = assay: SMC apoptosis/killing, TUNEL staining, human aortic SMCs; conditions: DetaNONOate alone, up to 0.2 mM
Description: as §1, §2

[3] = tested on: human umbilical vein endothelial cell (HUVEC); assay: EC viability: HUVEC cell number, apoptosis, proliferation
Description: Next, the effect of FasL and NO donor combinations on EC viability was tested.

NCCN(CCN)N(O)N=O [DetaNONOate, 2,2′-(2-Hydroxy-2-nitrosohydrazinylidene)bis-ethanamine]
death of porcine SMCs (pig aortic SMCs): < 15% | Fas receptor expression on SMCs (human aortic SMCs [1]): increased | death of human SMCs (human aortic SMCs [2]): < 15% | EC viability ([3]; DetaNONOate 0.2 mM): negatively affected EC viability | HUVEC cell number, rates of apoptosis or proliferation ([3]; DetaNONOate alone 0.1 mM, absence of FasL, 96 hours): did not affect
